70 molecules from the OPERA property sets (Mansouri et al. 2018) can be followed below.

For orientation: solubility means the concentration that dissolves in the medium under given conditions.

In brackets after ≈: the same amount, converted by molar mass.

Details in the first data set: not given
Consider `CC=CCCl`, for which the solubility amounted to 11 mM (≈ 1000 µg/mL).
The same measure, in the same setting: then `Cc1cccc(Cl)c1`, with 0.3 mM (≈ 38 µg/mL); and `O=C(OCC(O)CO)c1ccccc1Nc1ccnc2cc(Cl)ccc12` (stereo not given), with 107 mM (≈ 40000 µg/mL).
On the same count and under the same terms, then `CC[C@H](Br)C(=O)O`, with 419 mM (≈ 70000 µg/mL); and `O=C1C=CC(=C(c2ccc(O)cc2)c2ccc(O)cc2)C=C1`, with 4.13 mM (≈ 1200 µg/mL).
Still for that read-out and setting: then `Cc1ccc(C(=O)O)cc1C`, with 0.86 mM (≈ 129 µg/mL); and `O=C1c2ccccc2C(=O)c2c1ccc(O)c2O`, with 1.67 mM (≈ 400 µg/mL); and `CCOc1ccc2nc(S(N)(=O)=O)sc2c1`, with 0.155 mM (≈ 40 µg/mL).
The molecule `CC(=O)N=c1sc(S(N)(=O)=O)nn1C` had a solubility of 14.8 mM (≈ 3500 µg/mL).
On the same count and under the same terms, then `CCc1cccc(CC)c1N`, with 4.49 mM (≈ 670 µg/mL).

The same data set, now with this note: 20 °C.
`Nc1ccccc1C(=O)O` yielded a solubility of 25.5 mM (≈ 3500 µg/mL).
On the same count and under the same terms, the figure for `CCOP(=S)(NC(C)C)Oc1ccccc1C(=O)OC(C)C` (stereo not given) is 0.064 mM (≈ 22.1 µg/mL); for `CCCCOC(=O)C(C)O` (stereo not given) it is 274 mM (≈ 40000 µg/mL); for `NC[C@H](O)c1ccccc1` it is 334 mM (≈ 45800 µg/mL).
`Clc1ccccc1-c1cccc(Cl)c1Cl` had a solubility of 0.00114 mM (≈ 0.293 µg/mL).
The same measure, in the same setting: then `CCCCOC(=O)CCC`, with 3.47 mM (≈ 500 µg/mL).
Same read-out and setting: then `O=C(O)CN(CP(=O)(O)O)CP(=O)(O)O`, with 943 mM (≈ 248000 µg/mL).
`Clc1ccc(-c2ccc(Cl)c(Cl)c2)cc1` had a solubility of 0.000279 mM (≈ 0.0719 µg/mL).
Molecule `OCCCBr` had a solubility of 1020 mM (≈ 142000 µg/mL).
The same measure, in the same setting: the figure for `Clc1ccc(Cl)c(-c2cc(Cl)c(Cl)c(Cl)c2Cl)c1` is 2.09e-05 mM (≈ 0.00755 µg/mL); for `COCCCNc1nc(NC(C)C)nc(SC)n1` it is 1.18 mM (≈ 320 µg/mL); for `O=[N+]([O-])c1c(O)ccc2ccccc12` it is 1.06 mM (≈ 200 µg/mL).
On the same count and under the same terms, the figure for `Oc1cccc2cccnc12` is 3.83 mM (≈ 556 µg/mL); for `O=C(O)c1cnc(O)nc1O` it is 11.5 mM (≈ 1800 µg/mL).
The same measure, in the same setting: then `c1ccc(C(c2ccccc2)(c2ccccc2)N2CCOCC2)cc1`, with 6.07e-05 mM (≈ 0.02 µg/mL).
`CCCOC(=O)c1ccccc1C(=O)OCCC` had a solubility of 0.432 mM (≈ 108 µg/mL).
The same measure, in the same setting: the figure for `Clc1cc(Cl)c(-c2cccc(Cl)c2Cl)cc1Cl` is 8.7e-05 mM (≈ 0.0284 µg/mL).
The same measure, in the same setting: the figure for `CNCC(=O)O` is 3370 mM (≈ 300000 µg/mL).
On the same count and under the same terms, the figure for `CCCI` is 6.3 mM (≈ 1070 µg/mL); for `Oc1nc(O)c2nccnc2n1` it is 7.62 mM (≈ 1250 µg/mL); for `Cc1occc1C(=O)Nc1ccccc1` it is 0.497 mM (≈ 100 µg/mL).
As to `Clc1ccc(-c2c(Cl)cc(Cl)c(Cl)c2Cl)cc1Cl`, the solubility was 2.24e-05 mM (≈ 0.00807 µg/mL).
The same measure, in the same setting: then `CCCCOC(=O)CC`, with 11.5 mM (≈ 1500 µg/mL); and `N[C@@H](CSSC[C@H](N)C(=O)O)C(=O)O`, with 0.791 mM (≈ 190 µg/mL).
In turn, `CCOP(=S)(OCC)Oc1cc(C)nc(N(CC)CC)n1` had a solubility of 0.0119 mM (≈ 3.97 µg/mL).
For the molecule `O=Cc1ccc2c(c1)OCO2`, the solubility was determined as 23.3 mM (≈ 3500 µg/mL).
On the same count and under the same terms, the figure for `O=C(O)Cn1c(=O)sc2cccc(Cl)c21` is 2.46 mM (≈ 600 µg/mL).
Same read-out and setting: then `CC(=O)CC1CCCCN1` (stereo not given), with 354 mM (≈ 50000 µg/mL).
Turning to `CC(=O)CCC1C(=O)N(c2ccccc2)N(c2ccccc2)C1=O`, the solubility was determined as 0.54 mM (≈ 174 µg/mL).
`CC(Cl)C(C)Cl` (stereo not given) registered a solubility of 4.42 mM (≈ 562 µg/mL).
The same measure, in the same setting: then `Clc1ccc2c(c1)Oc1c(Cl)c(Cl)c(Cl)c(Cl)c1O2`, with 3.37e-07 mM (≈ 0.00012 µg/mL); and `CNC(=O)Nc1nc2ccccc2s1`, with 0.0579 mM (≈ 12 µg/mL).
The same measure, in the same setting: then `O=C(O)C1(O)c2ccccc2-c2ccc(Cl)cc21` (stereo not given), with 0.076 mM (≈ 19.8 µg/mL); and `O=C1C[C@@H](c2ccc(O)c(O)c2)Oc2cc(O)cc(O)c21`, with 0.243 mM (≈ 70 µg/mL); and `CON(C)C(=O)Nc1ccc(Br)c(Cl)c1`, with 0.119 mM (≈ 35 µg/mL).
The same measure, in the same setting: the figure for `O=c1[nH]c(=O)c2[nH]c(=O)[nH]c2[nH]1` is 0.353 mM (≈ 59.3 µg/mL).

Still in this data set, the particulars now being: 21 °C.
As to `O=C(O)CCCCCCCCCC(=O)O`, the solubility was found to be 23.6 mM (≈ 5100 µg/mL).
Same read-out and setting: then `O=C(O)CCCCCCCCCCCC(=O)O`, with 6.14 mM (≈ 1500 µg/mL).

The same data set, now with this note: 22 °C.
Take `C1CCN2C[C@@H]3C[C@@H](CN4CCCC[C@@H]34)[C@H]2C1`: the solubility came out at 13 mM (≈ 3040 µg/mL).
On the same count and under the same terms, then `COC(=O)[C@@H]1C2CCC(C[C@@H]1OC(=O)c1ccccc1)N2C` (stereo not given in full), with 5.93 mM (≈ 1800 µg/mL); and `CCC1(c2ccccc2)C(=O)NCNC1=O`, with 2.29 mM (≈ 500 µg/mL).
On the same count and under the same terms, the figure for `Cc1cc(=O)[nH]c(=O)[nH]1` is 55.5 mM (≈ 7000 µg/mL).

The same data set, now with this note: 23 °C.
As for `O=C1C(Cl)=C(NC(=O)C(Cl)Cl)C(=O)c2ccccc21`, the solubility worked out at 0.00942 mM (≈ 3 µg/mL).
The same measure, in the same setting: then `C=C(C)C1CC=C(C)C(=O)C1` (stereo not given), with 8.67 mM (≈ 1300 µg/mL); and `O=c1[nH]cnc2nc[nH]c12`, with 5.14 mM (≈ 700 µg/mL); and `CCCC(C)(C)C(=O)Nc1ccc(Cl)cc1`, with 0.0951 mM (≈ 22.8 µg/mL).
Still for that read-out and setting: then `NC(=O)CC(N)C(=O)O` (stereo not given), with 172 mM (≈ 22700 µg/mL).

Staying with this data set, now noted: 24 °C.
`O=C(O)c1c2ccccc2cc2ccccc12` registered a solubility of 0.382 mM (≈ 85 µg/mL).
Still for that read-out and setting: the figure for `NC(=O)CCl` is 962 mM (≈ 90000 µg/mL); for `CC1CCCCC1C` (stereo not given) it is 0.0748 mM (≈ 8.4 µg/mL).
On to `Cc1c2ccccc2cc2c1ccc1ccccc12`, for which the solubility worked out at 4.54e-05 mM (≈ 0.011 µg/mL).
Molecule `Nc1cccc2nc3ccccc3cc12` returned a solubility of 0.06 mM (≈ 11.7 µg/mL).
On the same count and under the same terms, the figure for `CC(C)N(N=O)C(C)C` is 99.9 mM (≈ 13000 µg/mL).

Staying with this data set, now noted: 25 °C.
As to `S=C=Nc1cccc(Br)c1`, the solubility stood at 0.0822 mM (≈ 17.6 µg/mL).
Still for that read-out and setting: the figure for `CC(=O)Nc1ccccc1` is 51.3 mM (≈ 6930 µg/mL).
For the molecule `Cc1ccc2ccc(C)nc2c1`, the solubility worked out at 11.4 mM (≈ 1790 µg/mL).
Consider `C=CCC1(CC(C)C)C(=O)NC(=O)NC1=O`, for which the solubility was 7.6 mM (≈ 1700 µg/mL).
The molecule `CC(C)OC(C)(C)C` registered a solubility of 4.3 mM (≈ 500 µg/mL).
For the molecule `Oc1c(Cl)cc(Cl)c(Cl)c1Cc1c(O)c(Cl)cc(Cl)c1Cl`, the solubility was determined as 0.344 mM (≈ 140 µg/mL).
Still for that read-out and setting: then `CCCCCCC`, with 0.0339 mM (≈ 3.4 µg/mL).
